The source of these data is ChEMBL document CHEMBL3507680, “University of Dundee, Gates Library screen for HepG2 cell viability”.

The structures appear in SMILES notation.

A short description of the data set: Human HepG2 cell viability assay in 384 well format. It is filed as toxicity, cell-based. On the set-up: dose 125 nL, time 70.5 hour; concentration not given beside the values. The conditions noted are these: HepG2 cells, read-out: Inhibition.
Take `CCOCCCNC(=O)C(NC(=O)Cc1cccs1)c1ccc(C)cc1` (centres undefined): the cytotoxicity at 70.5 h was -2.89%.

As to `CCOC(=O)CCn1cnc2onc(-c3cc(OC)ccc3Cl)c2c1=O`, the cytotoxicity at 70.5 h was -11%. As for `Cn1nnc(NCc2ccc(OCc3ccc(Cl)cc3)cc2)n1`, the figure is -4.01%; as for `CCOc1cc(CNc2nnn(C)n2)ccc1OCc1ccc(Cl)cc1`, -10.2%.

Take `CCCn1nnc(NCc2ccccc2OCc2ccc(Cl)cc2)n1`: the cytotoxicity at 70.5 h is -7.74%. As for `CCOC(=O)CCn1cnc2onc(-c3ccc(OC)cc3)c2c1=O`, the figure is 35.2%; as for `CN1CC=C(c2noc(CCC(=O)N3CCc4ccccc43)n2)CC1`, -26.2%. As for `Cc1cc(N(C)Cc2ncc[nH]2)nc(-c2ccccc2)n1`, the figure is -6.89%; as for `O=C(c1ccc(C2CCCN2C(=O)c2cscn2)s1)N1CCSCC1` (centres undefined), -11.1%; as for `COc1ccc([C@@H]2CN(c3cc(C(=O)O)ccn3)C[C@H]2N(C)C)cc1`, 25.7%. Take `CCc1cc(NCCc2cc(F)cc(F)c2)n2nccc2n1`: the cytotoxicity at 70.5 h was -2.57%. The result for `CS(=O)(=O)N1C[C@@H]2CC[C@H](C1)N(Cc1ccsc1)C2` reads 34.2%; that for `CCc1ccc(-c2c(C)c(-c3cnn(C)c3)nc(N)c2C#N)o1`, -6.72%. For the molecule `COc1cccc(Cl)c1C(C(=O)O)N(C)Cc1c(C)n[nH]c1C` (centres undefined), the cytotoxicity at 70.5 h was -12.4%. As for `CCN1CCCC(c2c(-c3ccccc3)ncn2Cc2csc(N)n2)C1` (centres undefined), the figure is -0.765%; as for `CN(Cc1cc2n(n1)CCCNC2)Cc1cc(-c2ccncc2)no1`, -5.61%; as for `OC(CNc1nc(C2CCCC2)nc2c1CCNCC2)C(F)(F)F` (centres undefined), -7.87%. The result for `CCn1cc(CNC(=O)CCc2nnc(-c3ccc(C)s3)o2)cn1` reads 10%.

Turning to `CCn1cnnc1CCNC(=O)CCNC(=O)c1ccccc1F`, the cytotoxicity at 70.5 h was -6.14%. The result for `CCS(=O)(=O)N[C@H]1CN(CC(C)(C)N2CCOCC2)C[C@@H]1C1CC1` reads -18.9%; that for `COCCN1CCCC(O)(CN2CCN(c3cnccn3)CC2)C1=O` (centres undefined), -3.08%; that for `CC(C)n1cnnc1CCNCc1cn(CCC(N)=O)c2ccccc12`, -0.781%. For `CC(C)NCc1cc2n(n1)CCN(C1CCCCC1)C2`, the cytotoxicity at 70.5 h is 9.14%. The result for `CCCc1ccc2oc(C(=O)N3CCN(CCOC)CC3)c(C)c2c1` reads -2.68%; that for `COC1CCN(S(=O)(=O)NCC2COc3ccccc3C2)CC1` (centres undefined), -4.76%; that for `Cc1nc2ccc(S(=O)(=O)Nc3c(C)nn(CC(=O)O)c3C)cc2s1`, -10.8%. As for `Cc1ccnn1CCC(=O)N1C[C@H]2CC[C@@H]1CN(CC(=O)N(C)C)C2`, the figure is -0.432%; as for `CCC[C@H]1CN(Cc2cc(C#N)n(C)c2C)C[C@@H]1N(C)C`, -7.07%; as for `C/C=C(\C)CN1C[C@@H](NC(=O)c2ccc(F)c(F)c2)C[C@H]1C(=O)NCC`, -12.2%. The result for `Cc1cc(C)n(CC(C)NCc2nc(-c3cccnc3)no2)n1` (centres undefined) reads -6.9%; that for `Cc1nc(CN(C)Cc2cnc(N3CCOCC3)s2)no1`, 22.9%; that for `CCn1c(C2CCCN(Cc3cccc4cnccc34)C2)nn(C)c1=O` (centres undefined), -7.71%. Take `CC(=O)Nc1ccc(C(=O)Nc2cnc3n2CCCC3)cc1C`: the cytotoxicity at 70.5 h worked out at 5.91%. Turning to `O=C(CCc1cc2n(n1)CCNC2)NCCS(=O)(=O)N1CCCC1`, the cytotoxicity at 70.5 h is -11.2%. On to `Cc1c[nH]c(CN2CC[C@@]3(O)CCN(C(=O)C4CCC4)C[C@H]3C2)n1`, for which the cytotoxicity at 70.5 h was -1.74%. As to `COc1ncc(C2(O)CCN(Cc3ccccc3O)CC2)c(OC)n1`, the cytotoxicity at 70.5 h stood at 7.32%. As for `COCCc1ncc(CN2CCC(Oc3ccccc3C)CC2)cn1`, the figure is -0.184%.

As to `Cc1nc(-c2cccc(C(=O)O)c2)cc(C2CCN(C(C)C)C2)n1` (centres undefined), the cytotoxicity at 70.5 h was -2.07%. As for `Cc1cccnc1C(=O)N1CCCC(c2[nH]ncc2S(C)(=O)=O)C1` (centres undefined), the cytotoxicity at 70.5 h amounted to 0.897%. Take `Cc1cccnc1C(=O)N1CCCCC1c1[nH]ncc1S(C)(=O)=O` (centres undefined): the cytotoxicity at 70.5 h was determined as 1.39%. The result for `Cc1cnc(C(=O)N2CCCCC2c2[nH]ncc2S(C)(=O)=O)cn1` (centres undefined) reads 3.44%. For `Cc1nccc(CN2CC[C@H](Oc3cccc(F)c3)[C@@](C)(O)C2)n1`, the cytotoxicity at 70.5 h is -3.99%.

`Cc1nccn1-c1cccc(C2CCCN2S(=O)(=O)N(C)C)n1` (centres undefined): the cytotoxicity at 70.5 h was 2.07%. As for `Cc1nc(C2CCCN2CC(=O)Nc2c(C)n[nH]c2C)no1` (centres undefined), the figure is 39%; as for `COc1c(C2CCCN2C(=O)c2sc(C)nc2C)c(C)nn1C` (centres undefined), 10.6%; as for `COCc1cccc(CNC(=O)c2c(C)noc2C(C)C)c1`, 10.6%. The result for `CC1CN(C)CCN1C(=O)c1ccn(-c2ccccc2)n1` (centres undefined) reads 17.4%.

For the molecule `CC1CN(C)CCN1C(=O)c1cnn(-c2cccc(Cl)c2)c1` (centres undefined), the cytotoxicity at 70.5 h is -9.03%. On to `Cc1n[nH]c(C)c1NC(=O)CN1CCCC1c1noc(C(C)C)n1` (centres undefined), for which the cytotoxicity at 70.5 h amounted to 15.2%. Take `O=c1oc(-c2ccc(F)cc2)nn1CN1CCCCC1`: the cytotoxicity at 70.5 h was -18.4%.

For the molecule `Cc1nc(-c2ccccc2)n(CC(=O)NC2CCCCC2)n1`, the cytotoxicity at 70.5 h is -14.1%. As for `Cc1noc(C(C)C)c1C(=O)NCc1ccc(N(C)C)c(F)c1`, the figure is -9.82%. The result for `Cc1cc(CN2CCN(c3ccc4nncn4n3)C(C)C2)on1` (centres undefined) reads 20%; that for `CCOc1ccc2cc(C(=O)N3CCn4c(CC)nnc4C3)[nH]c2c1`, -8.2%; that for `Cc1nc(-c2ccccc2C)n(CC(=O)NC2CCCC2)n1`, 19%.

As to `CCc1nnc2n1CCN(C(=O)c1cc3ccc(C)cc3[nH]1)C2`, the cytotoxicity at 70.5 h is -12.2%. The result for `CCc1nnc2n1CCN(C(=O)c1cc3c(F)cccc3[nH]1)C2` reads -6.74%. As for `CN1CCN(C2CCN(CCOc3ccccc3F)CC2)C1=O`, the figure is -11.6%. As for `CCOc1ccc(CC(=O)N2CCCC(n3nc(C)nc3C)C2)cc1` (centres undefined), the figure is -5.27%; as for `COc1c(C2CCCN2C(=O)c2cscn2)c(C)nn1C` (centres undefined), 18.5%.

Regarding `Cc1nc(C)n(C2CCCN(C(=O)COc3ccccc3)C2)n1` (centres undefined), the cytotoxicity at 70.5 h is -8.86%. The result for `Cc1nc(C)n(C2CCCN(C(=O)CCOc3cccc(F)c3)C2)n1` (centres undefined) reads -6.19%; that for `Cc1ncc(CN2CCN(c3ccc4nncn4n3)C(C)C2)s1` (centres undefined), -11.1%. In the case of `COc1cccc(S(=O)(=O)NC(=O)CCC2CCCC2)c1`, the cytotoxicity at 70.5 h was -8.64%. The result for `COc1cccc(S(=O)(=O)NC(=O)COC2CCCCC2)c1` reads 0.508%; that for `COCCc1noc(CN2CCCC2Cn2cccn2)n1` (centres undefined), -9.31%. The result for `CCc1csc(C2CCCN(C(=O)c3ccc(=O)n(CC)n3)C2)n1` (centres undefined) reads -5.74%. On to `COCCc1noc(CN2CCCCC2Cn2cccn2)n1` (centres undefined), for which the cytotoxicity at 70.5 h was -11.6%. Take `CCN1N=C(C(=O)N2CCCC(c3nc(C)cs3)C2)CCC1=O` (centres undefined): the cytotoxicity at 70.5 h was -2.03%. As for `CC(NC(=O)NCCNc1ccccn1)c1cccs1` (centres undefined), the figure is -1.83%; as for `CC(C)C(NC(=O)Nc1ccccn1)c1cccs1` (centres undefined), 28.6%. As for `O=C1CN(c2ccc(CNC(=O)NCCO)cc2)CCN1`, the figure is -5.73%. Regarding `CC1CCN(CCNC(=O)c2ccn(-c3ccccc3)n2)CC1`, the cytotoxicity at 70.5 h was -6.14%. As for `COc1ccc(-n2ccc(C(=O)NCCN3CCC(C)CC3)n2)cc1`, the figure is -5.24%. For the molecule `COc1ccc(-n2ccc(C(=O)NCCN3CCCCC3)n2)cc1`, the cytotoxicity at 70.5 h is -4.18%. As for `Cn1ccc(CN2CCC(OCc3ccccc3)CC2)cc1=O`, the figure is 21.5%; as for `CN(C)C(=O)c1cccc(CN2CCOC(Cn3cccn3)C2)c1` (centres undefined), -12.9%. The result for `Cc1cnn(CC2CN(Cc3cccc(C(N)=O)c3)CCO2)c1` (centres undefined) reads -9.19%. As to `Cc1cnn(CC2CN(Cc3ccc(C(N)=O)cc3)CCO2)c1` (centres undefined), the cytotoxicity at 70.5 h is -7.11%. The result for `Cc1cnn(CC2CN(Cc3cccc(OC(C)C)c3)CCO2)c1` (centres undefined) reads -5.62%; that for `Cc1cnn(CC2CN(Cc3cccnc3)CCO2)c1` (centres undefined), -6.35%. Take `Cc1cc(C[S+]([O-])CC(=O)NCc2ccccc2)no1` (centres undefined): the cytotoxicity at 70.5 h was -5.28%.

`Cc1ccc(-c2nc(CNC3CCc4ncnn4C3)co2)cc1` (centres undefined): the cytotoxicity at 70.5 h was -9.15%.

Turning to `O=C(Cc1cccc(O)c1)NCCCNC(=O)c1cccc(F)c1`, the cytotoxicity at 70.5 h was -5.97%. `CC(C)c1nc(CN2CCCC2Cn2cccn2)no1` (centres undefined): the cytotoxicity at 70.5 h is -2.93%. As to `CCc1csc(C2CCCN(C(=O)c3ccco3)C2)n1` (centres undefined), the cytotoxicity at 70.5 h came to 17.1%. The result for `COC(=O)c1cccc(S(=O)(=O)NC(=O)COC2CCCC2)c1` reads -11.9%; that for `Cc1cc2n(n1)CC(CNCc1ccc(OCC3CC3)nc1)CN2` (centres undefined), 7.09%; that for `CCN(C(C)=O)c1nc(CN2CCCC2Cn2cncn2)cs1` (centres undefined), 17.8%.

For `Cc1cnn(C2CN(Cc3nc(-c4ccccn4)no3)C2)c1`, the cytotoxicity at 70.5 h came to 12.3%.

On to `CN(Cc1noc(C(C)(C)C)n1)C1CCCN(c2cccnn2)C1` (centres undefined), for which the cytotoxicity at 70.5 h came out at 44.8%.

Take `CN(Cc1noc(C2CC2)n1)C1CCCN(c2cccnn2)C1` (centres undefined): the cytotoxicity at 70.5 h worked out at 0.945%. The result for `CCC1CCCCN1Cc1ncc(C(C)(C)C)o1` (centres undefined) reads -7.2%; that for `O=C(c1ccc2nncn2c1)N1CCCC(n2ccnc2)C1` (centres undefined), -14.2%; that for `CCn1cnnc1CNC(=O)N1CCN(c2cccc(C)c2)CC1`, -7.02%.

On to `Cc1cc(C)n(CC2CN(CC(=O)NC3CCCCC3)CCO2)n1` (centres undefined), for which the cytotoxicity at 70.5 h was -9.27%. Turning to `Cc1cc(C)n(CC2CN(CCC(=O)NC3CCCCC3)CCO2)n1` (centres undefined), the cytotoxicity at 70.5 h was -9.5%. The result for `Cc1cccc(-c2noc(CN3CC(n4cccn4)C3)n2)c1` reads -8.11%; that for `COc1ccc(CNC(C)Cn2cccn2)c(OC)c1OC` (centres undefined), -7.21%.
